Laboratory results as given in patent publication US20080153872A1, “Bis-(Coumarin) Compounds With Anti-Inflammatory Activity” (priority 2005, published 2008).

Tests used:
human 5-LO = target: T1, human 5-LO (Homo sapiens, UniProt P09917); experiment: Human 5-Lipoxygenase, 5-LO, assay in peripheral mononuclear blood cells; format: cell-based; settings: 10 μM concentration, LTB4 readout
T1 construct: Human peripheral mononuclear blood cells were isolated using Ficoll density separation; endogenous in cells; host or cells: human peripheral blood mononuclear cells
T1 sequence (P09917 1-674): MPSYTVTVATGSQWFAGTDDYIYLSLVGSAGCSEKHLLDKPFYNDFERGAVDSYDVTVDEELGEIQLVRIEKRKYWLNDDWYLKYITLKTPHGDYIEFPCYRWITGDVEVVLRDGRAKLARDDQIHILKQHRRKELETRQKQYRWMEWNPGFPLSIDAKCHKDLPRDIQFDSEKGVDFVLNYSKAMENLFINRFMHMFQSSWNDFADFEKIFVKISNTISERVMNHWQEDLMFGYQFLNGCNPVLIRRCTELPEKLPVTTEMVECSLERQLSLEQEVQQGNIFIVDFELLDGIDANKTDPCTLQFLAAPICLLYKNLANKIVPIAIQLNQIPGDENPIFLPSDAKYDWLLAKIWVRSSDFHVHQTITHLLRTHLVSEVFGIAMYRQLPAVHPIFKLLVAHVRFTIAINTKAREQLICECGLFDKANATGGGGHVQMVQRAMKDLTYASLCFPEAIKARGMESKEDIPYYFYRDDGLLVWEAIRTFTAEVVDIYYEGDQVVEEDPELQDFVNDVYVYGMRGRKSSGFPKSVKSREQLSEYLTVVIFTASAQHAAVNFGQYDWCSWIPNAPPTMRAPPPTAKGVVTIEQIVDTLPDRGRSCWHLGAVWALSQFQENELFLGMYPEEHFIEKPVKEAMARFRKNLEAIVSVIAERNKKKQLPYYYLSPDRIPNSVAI
Experimental: (§1) All compounds were dissolved in dimethyl sulfoxide (DMSO). Final concentration of the DMSO in all tests was 1% (v/v). Inhibition in all tests is considered preferred if it exceeds 50% at 10 μM concentration (or less).
Human peripheral mononuclear blood cells were isolated using Ficoll density separation. Cells were incubated in Hanks Balanced Salt Solution (HBSS) with compounds for 15 minutes at 37° C. Substrate (arachidonic acid) was added in 20 μM final concentration and cells were incubated for another 15 minutes. LTB4 as a final product of arachidonic acid metabolism was measured using competitive enzyme immunoassay (See, e.g., Safayhi, H. et al. Planta Medica 2000, 66, 110-113) and percentage of inhibition was calculated from the levels of LTB4 in cell supernatant.

TxA2 receptor = target: T2, TxA2 receptor (Homo sapiens, UniProt P21731); experiment: Human thromboxane A2, TxA2, assay (SQ-29548 competition); format: binding; settings: 10 μM concentration; HEK-293
T2 construct: expressed in transfected cells; host or cells: HEK-293
T2 sequence (P21731 1-343): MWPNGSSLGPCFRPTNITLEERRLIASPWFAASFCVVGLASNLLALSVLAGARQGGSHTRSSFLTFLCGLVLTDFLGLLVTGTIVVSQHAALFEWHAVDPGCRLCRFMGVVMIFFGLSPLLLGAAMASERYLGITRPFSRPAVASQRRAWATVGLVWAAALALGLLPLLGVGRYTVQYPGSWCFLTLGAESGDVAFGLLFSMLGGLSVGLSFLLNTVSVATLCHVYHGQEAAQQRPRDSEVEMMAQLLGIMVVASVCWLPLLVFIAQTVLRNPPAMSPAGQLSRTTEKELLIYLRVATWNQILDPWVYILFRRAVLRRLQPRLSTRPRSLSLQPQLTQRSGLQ
Experimental: as §1
TxA2 receptor is expressed in HEK-293 cell line. Compounds and radiolabelled competitor SQ-29548 are incubated for 30 minutes at 25° C. Level of bound SQ-29548 is measured by scintillation counting, and competition is calculated from the total amount of the bound SQ-29548. […] is an unstable lipid mediator involved in blood clotting, and immune processes.

human PDE4 = experiment: Human PDE4 assay (U937); format: biochemical; settings: 10 μM concentration
Experimental: as §1
(§2) PDE4 assay. PDE is implicated in diseases such as chronic obstructive pulmonary disease and neutrophilia. Human monocytic leukemia cell line U937 is pre-incubated at 25° C. in Tris-HCl buffer containing magnesium ions for 15 minutes. 1.01 μM tritium labeled cyclic adenosine monophosphate (cAMP) is added as substrate, followed by incubation at 25° C. for 20 minutes. Percentage of inhibition is calculated by comparing the adenosine levels in supernatant which is formed from cAMP in treated versus control cells.

human PDE3 = target: T3, human PDE3 (Homo sapiens, UniProt Q14432); experiment: Human PDE3 assay (platelets); format: biochemical; settings: 10 μM concentration
T3 construct: Isolated human platelets are pre-incubated at 25° C; from tissue; host or cells: human platelets
Experimental: as §1
as §2, with “PDE3” for “PDE4”, “Isolated human platelets are” for “PDE is implicated in diseases such as chronic obstructive pulmonary disease and neutrophilia. Human monocytic leukemia cell line U937 is”

CD1 mice = experiment: PMA induced ear oedema in CD1 mice; format: in vivo, mouse; settings: topical, single dose of 250 or 100 μg/15 μL/ear; statistically significant vs positive control
Experimental: Male CD1 mice (Iffa Credo, France) weighing ˜35-40 g were randomly grouped (n=8 in vehicle treated test group, dexamethasone treated control group as well as in groups treated with compounds to be assayed). Test compounds, dexamethasone as well as vehicle (Trans-phase Delivery System, containing benzyl alcohol 10%, acetone 40% and isopropanol 50%) (all from Kemika, Croatia), were administered topically to the internal surface of the left ear thirty minutes prior to administration of phorbol 12-myristate 13-acetate (PMA) (Alexis biochemicals, USA). Test compounds were administered at a single dose of 250 or 100 μg/15 μL/ear and dexamethasone at a single dose of 50 μg/15 μL/ear. Thirty minutes later, 0.01% PMA solution in acetone was applied topically to the same area of each animal in a volume of 12 μL/ear. During the treatment and challenge, animals were anaesthetized by using inhalation anaesthesia. Six hours after the challenge, animals were euthanized by asphyxiation in 100% CO2 atmosphere. For assessing the auricular oedema, 8 mm discs were cut out of left and right auricular pinna and weighed. The degree of oedema was calculated by subtracting the weight of 8 mm disc of the untreated ear from that of the treated contralateral ear.

CysLT1 receptor = target: T4, CysLT1 receptor (Homo sapiens, UniProt Q9Y271); experiment: Human cysteinyl leukotriene receptor 1 (CysLT1) radioligand binding assay; settings: 10 μM concentration; CHO-K1 cells
T4 construct: expressed in transfected cells; host or cells: CHO-K1
T4 sequence (Q9Y271 1-337): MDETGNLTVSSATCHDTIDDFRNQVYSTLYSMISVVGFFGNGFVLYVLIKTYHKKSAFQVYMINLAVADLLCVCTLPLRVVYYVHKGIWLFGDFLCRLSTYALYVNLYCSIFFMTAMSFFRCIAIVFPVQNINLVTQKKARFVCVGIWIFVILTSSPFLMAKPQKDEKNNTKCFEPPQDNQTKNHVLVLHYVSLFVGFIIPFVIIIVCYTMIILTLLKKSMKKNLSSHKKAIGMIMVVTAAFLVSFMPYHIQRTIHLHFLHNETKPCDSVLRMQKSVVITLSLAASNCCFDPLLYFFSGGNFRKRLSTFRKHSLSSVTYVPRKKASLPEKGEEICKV
Experimental: as §1
CysLT1 receptor is involved in immune diseases such as asthma, and has clinical significance as a point of intervention in asthma therapy. CysLT1 receptor is expressed in CHO-K1 cells (Chinese hamster ovary cells K1 clone). This is a competitive radioligand binding assay where substances compete with [^3H]-labeled Leulcotirene D4 (LTD4). Radioactive substance is measured with scintillation counting. Percentage of inhibition is calculated from the total radioactivity of the sample.

[1] = system: Human prostanoid receptor; experiment: Human prostanoid receptor assay ([3H]-PGD2 competition); format: binding; settings: 10 μM concentration; CHO-K1
Experimental: as §1
Human prostanoid receptor is expressed in Chinese hamster ovary cell line, clone K1 (CHO-K1). Substances and radioactive competitor (tritium labelled Prostaglandin D2 in 1.7 nM concentration) are incubated with cells in HEPES buffer for 2 hours at 25° C. in the presence of manganese ions. Level of the bound PGD2 is measured by scintillation counting, and competition is calculated from comparing the total amount of the bound PGD2 in treated versus control cells. Prostanoids are involved in many physiological and pathological processes, from inflammation to pain.

IL-5 = experiment: Inhibition of IL-5 production by ConA stimulated mouse splenocytes; format: cell-based; settings: 25 μM
Experimental: Spleen cell suspension was obtained from BALB/c mice and lymphocytes separated by gradient density centrifugation on Histopaque 1.083 on 400 g for 30 minutes. They were washed once in medium, counted and their number adjusted as 3×10^5/200 μL/well in 96 flat bottomed culture plate in RPMI supplemented with 10% fetal bovine serum. Cells were stimulated on cytokine production by adding concanavalinA (ConA) at 5 μg/mL final concentration. Unstimulated cells were cultured in medium alone. Stock solution was prepared out of testing compounds as 10 mM in DMSO. Final concentrations made in cell culture medium were tested when they had been added together with ConA. After 72 hours incubation period cell culture supernatants were collected. In each sample IL-4, IL-5, IL-10 and IFNγ were detected and quantified using enzyme linked immunosorbent assay (ELISA) specific for pointed cytokines (R&D Systems).
To calculate results, standard curve was made out of measured OD values for recombinant protein in known concentrations. Cytokine content in unknown samples was calculated out of OD values extrapolated from the standard curve.
Percentage of inhibition is calculated using formula:
% Inhibition=(1−cytokine concentration of sample/cytokine concentration of positive control)×100.

T3 sequence (Q14432 whole entry): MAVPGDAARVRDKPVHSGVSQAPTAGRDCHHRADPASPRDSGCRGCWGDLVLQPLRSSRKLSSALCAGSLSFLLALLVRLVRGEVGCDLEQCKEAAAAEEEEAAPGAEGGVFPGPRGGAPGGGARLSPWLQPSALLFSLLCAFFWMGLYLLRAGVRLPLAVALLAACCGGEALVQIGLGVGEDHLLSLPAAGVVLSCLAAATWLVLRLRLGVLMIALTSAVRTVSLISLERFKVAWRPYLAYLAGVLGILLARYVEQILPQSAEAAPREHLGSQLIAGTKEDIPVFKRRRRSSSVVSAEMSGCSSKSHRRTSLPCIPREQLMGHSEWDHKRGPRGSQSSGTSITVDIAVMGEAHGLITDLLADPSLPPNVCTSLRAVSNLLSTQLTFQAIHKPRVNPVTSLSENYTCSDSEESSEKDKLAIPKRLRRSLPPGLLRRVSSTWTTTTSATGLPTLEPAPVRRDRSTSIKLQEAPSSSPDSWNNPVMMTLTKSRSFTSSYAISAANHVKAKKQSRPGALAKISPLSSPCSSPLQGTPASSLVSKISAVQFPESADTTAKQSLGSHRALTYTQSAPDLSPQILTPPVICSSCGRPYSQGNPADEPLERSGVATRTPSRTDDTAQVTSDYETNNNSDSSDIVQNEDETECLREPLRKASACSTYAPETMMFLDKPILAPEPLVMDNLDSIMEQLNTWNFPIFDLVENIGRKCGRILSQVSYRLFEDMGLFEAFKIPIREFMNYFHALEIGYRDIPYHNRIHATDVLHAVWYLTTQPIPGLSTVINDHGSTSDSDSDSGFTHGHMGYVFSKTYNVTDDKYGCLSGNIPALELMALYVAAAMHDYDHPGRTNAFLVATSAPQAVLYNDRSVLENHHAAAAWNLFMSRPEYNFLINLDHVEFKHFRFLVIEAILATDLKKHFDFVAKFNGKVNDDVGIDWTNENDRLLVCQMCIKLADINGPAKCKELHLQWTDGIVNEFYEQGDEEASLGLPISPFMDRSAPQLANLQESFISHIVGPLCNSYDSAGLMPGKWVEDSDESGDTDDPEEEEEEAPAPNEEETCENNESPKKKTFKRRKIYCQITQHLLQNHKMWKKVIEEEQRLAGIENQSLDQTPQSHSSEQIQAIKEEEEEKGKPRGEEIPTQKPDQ

CCc1cccc2c(O)c(C(C(C)=O)c3c(O)c4cccc(CC)c4oc3=O)c(=O)oc12 [Example 17]
inhibition of human 5-LO (human 5-LO): significantly relevant activity | TxA2 receptor, competition with SQ-29548 (TxA2 receptor): significantly relevant activity | inhibition of human PDE4 activity (human PDE4): significantly inhibited | inhibition of human PDE3 activity (human PDE3): significantly inhibited

CC(=O)C(c1c(O)c2cc(Cl)c(C)cc2oc1=O)c1c(O)c2cc(Cl)c(C)cc2oc1=O [Example 25]
suppression of ear oedema (CD1 mice): considered active

CCc1ccc2oc(=O)c(C(C(C)=O)c3c(O)c4cc(CC)ccc4oc3=O)c(O)c2c1 [Example 26]
suppression of ear oedema (CD1 mice): considered active

Cc1cc2oc(=O)c(C(CO)c3c(O)c4cc(C)c(C)cc4oc3=O)c(O)c2cc1C [Example 28]
suppression of ear oedema (CD1 mice): considered active

CCc1ccc2oc(=O)c(C(CO)c3c(O)c4cc(CC)ccc4oc3=O)c(O)c2c1 [Example 29]
suppression of ear oedema (CD1 mice): considered active

Cc1cc2oc(=O)c(C(C(=O)OCCO)c3c(O)c4cc(C)c(C)cc4oc3=O)c(O)c2cc1C [Example 51]
suppression of ear oedema (CD1 mice): considered active

Cc1cc2oc(=O)c(C(C(=O)OCCO)c3c(O)c4cc(Cl)c(C)cc4oc3=O)c(O)c2cc1Cl [Example 54]
suppression of ear oedema (CD1 mice): considered active

O=c1oc2ccccc2c(O)c1C(c1cccc(Cl)c1)c1c(O)c2ccccc2oc1=O [Example 66]
suppression of ear oedema (CD1 mice): considered active

CCOC(=O)C(c1c(O)c2cccc(C(C)C)c2oc1=O)c1c(O)c2cccc(C(C)C)c2oc1=O [Example 292]
suppression of ear oedema (CD1 mice): considered active

O=c1oc2ccccc2c(O)c1C(c1ccc2c(c1)OCO2)c1c(O)c2ccccc2oc1=O [Example 349]
suppression of ear oedema (CD1 mice): considered active | inhibition of human 5-LO (human 5-LO): significantly relevant activity | TxA2 receptor, competition with SQ-29548 (TxA2 receptor): significantly relevant activity | CysLT1 receptor, competition with [3H]-LTD4 (CysLT1 receptor): significantly relevant activity

O=c1oc2ccccc2c(O)c1C(c1cnc2ccccc2c1)c1c(O)c2ccccc2oc1=O [Example 351]
suppression of ear oedema (CD1 mice): considered active | inhibition of human 5-LO (human 5-LO): significantly relevant activity | inhibition of human PDE4 activity (human PDE4): significantly inhibited | inhibition of human PDE3 activity (human PDE3): significantly inhibited | human prostanoid receptor, competition with tritium labelled PGD2 [1]: significantly relevant activity | CysLT1 receptor, competition with [3H]-LTD4 (CysLT1 receptor): significantly relevant activity

CC(C)c1cccc2c(O)c(C(c3c(O)c4cccc(C(C)C)c4oc3=O)C(C)O)c(=O)oc12 (stereo not drawn) [Example 364]
suppression of ear oedema (CD1 mice): considered active | inhibition of IL-5 production (IL-5): significantly inhibited
